We go through one molecule from PubChem BioAssay AID743297 (The Scripps Research Institute Molecular Screening Center, 2014).

Active and inactive are the calls of the source.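 The calls were made as follows: active = IC50 against TDP2 at or below a set limit; inactive = IC50 above that limit.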

The test addresses Tyrosyl-DNA phosphodiesterase 2 (Homo sapiens) (UniProt O95551). As to the kind of experiment: human TDP2 enzyme inhibitors, dose response, biochemical, epi absorbance, IC50 (AID 743297). The note with it: recombinant TDP2, T5PNP hydrolysis, absorbance 415 nm.

Chain of Tyrosyl-DNA phosphodiesterase 2 (Homo sapiens) (O95551 whole entry, looked up): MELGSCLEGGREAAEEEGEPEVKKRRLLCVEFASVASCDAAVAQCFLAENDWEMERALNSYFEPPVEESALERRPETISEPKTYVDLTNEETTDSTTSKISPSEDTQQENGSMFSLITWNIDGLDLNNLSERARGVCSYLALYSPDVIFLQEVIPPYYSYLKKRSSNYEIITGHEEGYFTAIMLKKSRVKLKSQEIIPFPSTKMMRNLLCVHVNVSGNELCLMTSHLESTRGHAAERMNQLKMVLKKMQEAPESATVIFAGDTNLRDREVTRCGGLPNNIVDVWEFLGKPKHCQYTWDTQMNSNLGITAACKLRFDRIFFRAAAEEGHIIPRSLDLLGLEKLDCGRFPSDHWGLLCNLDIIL

Turning to `C[c-]1[c-](C)[c-](C)[c-](C)[c-]1C.[Fe].c1cc2nccc(N3CCCC3)[c-]2c1` (stereo unspecified), the IC50 entry was “inactive”.
